Results: patent US20250194596A1 (priority 2023, published 2025)
Where a name gives a salt, the structure may show the parent alone. Read-outs that look alike come from different tables or passages of the source.

Tests used:
[1] = on human beings and animals; cited from earlier work
[2] = system: CLas; type: in vivo, Candidatus Liberibacter asianticum
[3] = system: CLas; type: in vivo, Candidatus Liberibacter asianticum; conditions: injection into the tree trunks for one week
[4] = type: physicochemical; conditions: 10 mg/mL in water

Compound: rhamnolipid
- toxic or side effects [1]: no toxic or side effects

Compound: CN(C)[C@@H]1C(O)=C(C(N)=O)C(=O)[C@@]2(O)C(O)=C3C(=O)c4c(O)cccc4[C@@](C)(O)[C@H]3[C@H](O)[C@@H]12 [oxytetracycline hydrochloride, reference compound]
- reduction of CLas content ([2]; 20 mg/mL, mesophyll injection, 3 d): about 20%

Compound: CC1(C)S[C@@H]2[C@H](NC(=O)[C@H](N)c3ccccc3)C(=O)N2[C@H]1C(=O)O [ampicillin, reference compound]
- CLas content reduced ([2]; 12 mg/mL, mesophyll injection, 3 d): more than 80%

Compound: O=C(/C=C/c1ccc(O)c(O)c1)O[C@@H]1C[C@](O)(C(=O)O)C[C@@H](O)[C@H]1O [chlorogenic acid]
- CLas content reduced ([2]; 0.5 mg/mL chlorogenic acid, mesophyll injection, 3 d): more than 60%
- inhibitory effect on CLas ([2]; 10 mg/mL, mesophyll injection, 3 d): equivalent to that of 5 mg/mL
- antibacterial effect on CLas ([2]; concentrations below 0.5 mg/mL, mesophyll injection, 3 d): not obvious
- concentration achieving a significant inhibitory effect on CLas ([2]; in vivo): not less than 5 mg/mL
- reduction of CLas content ([2]; injection into the mesophyll for 3 days): about 60%
- minimum inhibitory concentration (MIC) of chlorogenic acid for CLas ([2]; mesophyll injection of HLB-infected leaves, CLas content after 3 d): 500 µg/mL
- reduction of CLas content [3]: about 60%
- appearance of solution [4]: turbid
